Assay type in all cases: physicochemical
A short description of data set [1]: Water content of crystalline forms. The text has this:
The water content of the two crystalline forms of fluticasone propionate produced with the apparatus described herein has also been determined, and compared with that of conventionally crystallised and micronised fluticasone propionate.

The nature of data set [2]: Particle size distribution by laser diffraction (Malvern Mastersizer). The protocol:
The data for four samples of fluticasone propionate of the present invention, produced using the method and apparatus described herein, are presented in Table 2 below. The particle size was determined by laser diffraction (Malvern Mastersizer).
The particle size was determined by laser diffraction (Malvern Mastersizer).

The nature of data set [3]: Dynamic bulk density (fluidisability). As to the method: The dynamic bulk density (W) is indicative of a substance's fluidisability and is defined as: [formula]
where P is the packed bulk density (g cm^−3), A is the aerated bulk density (g cm^−3) and C is the compressibility (%) where C is calculated by the equation: [formula]
Clearly, a low figure for W corresponds to a high degree of fluidisability.
The dynamic bulk density for conventionally crystallised fluticasone propionate (micronised and non-micronised) and fluticasone propionate of the present invention are shown in Table 7.

Data set [4] can be described thus: Solvent content test by NMR. The protocol:
The solvent content of fluticasone propionate of the present invention was investigated by Nuclear Magnetic Resonance (NMR) and compared to that of conventional crystallised fluticasone propionate. Each sample was tested for acetone content. (The conventionally crystallised fluticasone propionate was crystallised from acetone.) In addition, sample 5 was crystallised from methanol and therefore tested for methanol.

Data set [5] is described as follows: Static charge test (drug retained on vial walls after rolling). The conditions noted are these: after rolling drug in the vial for 2 minutes. The protocol:
A simple test was devised to ascertain a relative static charge based on the quantity of drug remaining coated to the walls of a vial after rolling a predetermined quantity of drug in the vial for 2 minutes. The greater the amount of the drug remaining on the vial, the higher the relative static charge associated with the drug substance.

Data set [6] in a line: Stability of Form 2 to conversion to Form 1 by XRPD. The settings on record: after 62 weeks at ambient temperature and humidity. The protocol: X-ray powder diffraction (XRPD) patterns were generated using either a Siemens D 5000 or Philips X'pert MPD. The powders were scanned over a 2θ angle range of either 1.5° to 60°, or 0° to 35°, with a 0.02-0.050 step at 3-15 seconds count time using CuKα radiation. The Siemens D5000 measures intensity as counts per second and the Philips X'pert MPD measures intensity as counts.

The nature of data set [7]: Particle shape by scanning electron microscopy. As to the method:
The particle shape was determined by scanning electron microscopy. Data for three samples of fluticasone propionate of the present invention, produced using the method and apparatus described herein, are presented in FIGS. 5 to 7.

The mark [8] stands for this setting: drug material used in Inhaler Type A for cascade impaction.
The mark [9] stands for this setting: laser diffraction (Malvern Mastersizer).

The source of these data is patent US6406718B1, “Orthorhombic crystalline form of fluticasone propionate and pharmaceutical compositions thereof” (SmithKline Beecham Corporation, priority 1996, dated 2002).

A value given as a limit tells only on which side of the number the result lay.

In turn, “fluticasone propionate [Conventionally crystallised fluticasone propionate (micronis] [reference compound]” came in with a Water content in data set [1] of less than 0.1 % w/w. Besides, the “Mean particle size” value in data set [2] (setting [8]) worked out at 1.8 microns. Moreover, in data set [2] (setting [9]), the “% <5 μm” value was greater than 90%, the “% <10 μm” value is reported as greater than 95%, the Mean particle size is given as 1-3 μm and the “Uniformity Index” value is reported as 15. Besides, the “Dynamic Bulk Density (W)” value in data set [3] was found to be 0.21 g cm^−3. In data set [4], the “Acetone Content” value was “typically 0.7 % w/w”. The “% Drug retained on vial” value in data set [5] came out at 4.5%.

Take “fluticasone propionate [Conventionally crystallised fluticasone propionate (non-micr] [reference compound]”: the “Dynamic Bulk Density (W)” value in data set [3] is on record as 0.21 g cm^−3.

In data set [1], “fluticasone propionate [Form 1 fluticasone propionate prepared as described herein]” registered a Water content of less than 0.1 % w/w.

Substance “fluticasone propionate [Form 2 fluticasone propionate prepared as described herein]” yielded a Water content in data set [1] greater than 0.3 % w/w. For the same substance, in data set [6], the “Conversion of Form 2 to Form 1” value is listed as “no conversion was seen”.

For the substance fluticasone propionate [Sample 1], in data set [2] (setting [9]), the “% <5 μm” value is listed as 48%, the “% <10 μm” value was 81%, the Mean particle size is 5.2 μm and the “Uniformity Index” value was determined as 12.

With fluticasone propionate [Sample 2], in data set [2] (setting [9]), the “% <5 μm” value amounted to 20%, the “% <10 μm” value came to 48%, the Mean particle size came out at 10.4 μm and the “Uniformity Index” value worked out at 13.

As for fluticasone propionate [Sample 3], in data set [2] (setting [9]), the “% <5 μm” value came to 6%, the “% <10 μm” value was 13%, the Mean particle size is on record as 31.0 μm and the “Uniformity Index” value is 12. Besides, the “Dynamic Bulk Density (W)” value in data set [3] is reported as 0.17 g cm^−3.

For fluticasone propionate [Sample 4], in data set [2] (setting [9]), the “% <5 μm” value was 68%, the “% <10 μm” value was 83%, the Mean particle size came out at 2.8 μm and the “Uniformity Index” value came to 4.

Take fluticasone propionate [Sample 5]: the Particle shape result in data set [7] is given as “acicular”. Further, in data set [4], the “Acetone Content” value was “Not Detected” and the “Methanol Content” value is “Not Detected”.

Regarding fluticasone propionate [Sample 6], in data set [2] (setting [9]), the “% <5 μm” value is given as 24%, the “% <10 μm” value is on record as 51%, the Mean particle size was found to be 9.7 μm and the “Uniformity Index” value was 10. Besides, the Particle shape entry in data set [7] is recorded as “flake-like”.

For the substance fluticasone propionate [Sample 7], the Particle shape entry in data set [7] is given as “equant”.

As to fluticasone propionate [Sample 8], in data set [2] (setting [9]), the “% <5 μm” value is recorded as 23%, the “% <10 μm” value is given as 53%, the Mean particle size was 9.4 μm and the “Uniformity Index” value is on record as 11. Further, the “Acetone Content” value in data set [4] was “Not Detected”.

Regarding fluticasone propionate [Sample 9], in data set [2] (setting [9]), the “% <5 μm” value is on record as 23%, the “% <10 μm” value amounted to 52%, the Mean particle size was determined as 9.6 μm and the “Uniformity Index” value amounted to 12.

On to fluticasone propionate [Sample 12], for which the “Dynamic Bulk Density (W)” value in data set [3] came out at 0.05 g cm^−3.

As to fluticasone propionate [Sample 13], the “Dynamic Bulk Density (W)” value in data set [3] worked out at 0.06 g cm^−3.

fluticasone propionate [Sample 14]: the “% Drug retained on vial” value in data set [5] is listed as 3.8%.

For the substance fluticasone propionate [Sample 15], the “Acetone Content” value in data set [4] is on record as “Not Detected”. Besides, the “% Drug retained on vial” value in data set [5] was 4.2%.

For the substance fluticasone propionate [Sample 16], the “% Drug retained on vial” value in data set [5] came to 7.6%.

For fluticasone propionate [Sample 17], the “% Drug retained on vial” value in data set [5] amounted to 8.6%.

For fluticasone propionate [Sample 19], in data set [2] (setting [8]), the “Mean particle size” value is 4.8 microns.
